{
  "source": "patent US12285399B2",
  "about": "“Composition comprising bornyl acetate or pharmaceutically acceptable salt thereof as active ingredient for prevention or treatment of stress-related disorder” (UNIVERSITY-INDUSTRY COOPERATION GROUP OF KYUNG HEE …, priority 2019, dated 2025)",
  "type_in_all_cases": "in vivo, C57BL/6NTac mice",
  "key": {"Iba-1": {"test_system": "Iba-1", "assay": "Immunohistochemical staining for Iba-1 (microglia activation) in brain of CRS model", "conditions": "hippocampus and amygdala, CRS+BA group, 100 mg/kg oral", "description": "In order to confirm the antidepressant efficacy of bornyl acetate on the animal model of stress depression, an animal model of depression induced by chronic restrained stress (CRS) was prepared. Specifically, the animal model, 8-week-old male C57BL/6NTac mice after birth (Narabiotechnology, Korea; weight 22-24 g) had been stabilized for 1 week. A 50 ml conical tube (SPL Life sciences, Pocheon, Korea) was punched to make a hole, thereby making a restraint frame. The mice were put in the frame and restrained for 2 hours every day for 14 days. After restraint, the mice were allowed to freely ingest water and food in the home cage. Bornyl acetate (100 mg/kg) was administered orally 1 hour before induction of restraint stress every day. 14 days later, the mice were anesthetized, and 4% paraformaldehyde was perfused into the heart. Then, the mice were fixed, and the brain was excised. The excised brain was immersed in 4% paraformaldehyde and fixed at 4° C. for one more day. It was then changed to 30% sucrose, and the brain was stored at 4° C. for 3 days or more to prevent freeze damage. The brain was cut into a thickness of 30 μm using a cryocut microtome to prepare the frozen sections. […]"}, "COX-2 mRNA": {"test_system": "COX-2 mRNA", "assay": "RT-PCR of COX-2 mRNA in brain (hippocampus and amygdala) of CRS model", "conditions": "CRS+BA group, 100 mg/kg oral", "description": "(§1) In order to confirm the antidepressant efficacy of bornyl acetate on the animal model of stress depression, an animal model of depression induced by chronic restrained stress (CRS) was prepared. Specifically, the animal model, 8-week-old male C57BL/6NTac mice after birth (Narabiotechnology, Korea; weight 22-24 g) had been stabilized for 1 week. A 50 ml conical tube (SPL Life sciences, Pocheon, Korea) was punched to make a hole, thereby making a restraint frame. The mice were put in the frame and restrained for 2 hours every day for 14 days. After restraint, the mice were allowed to freely ingest water and food in the home cage.\n(§2) In order to confirm the inhibitory effect of bornyl acetate on the expression of inflammatory mediators in an animal model of depression induced by chronic restrained stress, mRNA expression was confirmed using reverse transcription-polymerase chain reaction (RT-PCR). Bornyl acetate (100 mg/kg) was orally administered 1 hour before inducing the restrained stress every day. […]\n(§3) Western blot and RT-PCR analysis were performed in the brain (hippocampus and amygdala) of an animal model of chronic restrained stress (CRS)-induced stress depression to exam and quantify the activation level of inflammatory mediators, thereby verifying the modulating effect of bornyl acetate on the inflammatory response in the brain. […]"}, "[1]": {"test_system": "animal model of stress depression induced by chronic restrained stress (CRS)", "assay": "Forced swimming test (FST) in CRS-induced stress depression model", "conditions": "CRS+BA group, oral daily 1 hour before restraint, 24 hours after TST, last 4 minutes of 6-minute test; dose not stated", "description": "as §1, with “cage. 24 hours after the tail suspension test, distilled water (23-24° C.) was filled to a height of about 14 cm in a circular water tank (diameter 15×height 25 cm), and the mice were dropped and forced to swim. […] Bornyl acetate (25, 50 and 100 mg/kg) of the present invention was dissolved in 0.1 M PBS, and the mixture was orally administered 1 hour before inducing restrained stress every day. Bornyl acetate was administered in a dose per individual of 100 μl.” for “cage.”"}, "iNOS mRNA": {"test_system": "iNOS mRNA", "assay": "RT-PCR of iNOS mRNA in brain (hippocampus and amygdala) of CRS model", "conditions": "CRS+BA group, 100 mg/kg oral", "description": "as §1, §2, §3"}},
  "data": [
    {"smiles": "CC(=O)OC1CC2CCC1(C)C2(C)C", "note": "(stereo not drawn) [BA, bornyl acetate]", "values": [
      {"measurement": "activation degree of microglia immunostained by Iba-1", "setting": "Iba-1", "result": "consistent"},
      {"measurement": "mRNA expression of COX-2 (CRS-induced increase)", "setting": "COX-2 mRNA; amygdala", "result": "significantly inhibited"},
      {"measurement": "mRNA expression of COX-2 (CRS-induced increase)", "setting": "COX-2 mRNA; hippocampus", "result": "significantly inhibited"},
      {"measurement": "time of immobility, forced swimming test", "setting": "[1]", "result": 85.2, "unit": "s"},
      {"measurement": "mRNA expression of iNOS (CRS-induced increase)", "setting": "iNOS mRNA; amygdala", "result": "significantly inhibited"},
      {"measurement": "mRNA expression of iNOS (CRS-induced increase)", "setting": "iNOS mRNA; hippocampus", "result": "significantly inhibited"}
    ]}
  ]
}
